Assay results reported in patent US8637679B2, “Process for the isolation of organic compounds useful for the treatment of cancer” (Council of Scientific and Industrial Research, priority 2011, dated 2014).

Legend:
SiHa = assay: 7-AAD flow cytometric apoptosis, SiHa; format: cell-based, human; conditions: 25 μM mahanine
Experimental: U87MG, LN229, HeLa, SiHa and ME180 (1×10^6 cells) cells were cultured in 6-well plates in presence or absence of Mahanine (25 μM) for 24 hrs. Cells were washed in PBS, incubated with 7-Aminoactinomycin D (7-AAD) at 4° C. for 20 min and processed. Data acquisition was done on a FACSCalibur flow cytometer (BD) at excitation wavelength at 488 nm and emission wavelength at 647 nm and analyzed with CellQuestPro software.

T98G = assay: MTT cell viability assay, T98G; format: cell-based, human; conditions: Homo sapiens, 48 hrs
Experimental: (§1) Human cervical cancer cell lines (HeLa, ME-180 and SiHa), brain tumor cell lines (U87MG, U373MG, U87MG EGFRvIII, T98G, A172 and LN229), lymphoid leukemia (MOLT-3, MOLT-4, REH and CEMC-7), myloid leukemia (K562), pancreatic cancer (MIAPaCa-2, AsPC-1, Panc-1 and Panc 10.05), lung cancer (A549) and colon cancer (HCT116 and SW480) cell lines from American Type Culture Collection, Manassas, Va., USA were grown in IMDM or RPMI (cell specific) Medium supplemented with 10% fetal bovine serum and 1% antibiotic-antimycotic. Cells were cultured in 37° C. in an atmosphere of 5% CO2.
(§2) Viability of cancer cell lines after treatment as at the indicated times was determined by MTT assay. Briefly, 10,000 cells were plated in triplicate in 96 well plates and incubated for 24 and 48 hours in complete media in presence of varying dose of mahanine (0-50 μM). 100 ug MTT was added in each well. Incubate the plate for 1-4 hours at 37° C. and humidified 5% CO2 atmosphere. Absorbance was recorded at 550 nm with 96 well plate readers.

U373MG = assay: MTT cell viability assay, U373MG; format: cell-based, human; conditions: Homo sapiens, U373 MG, 48 hrs
Experimental: as §1, §2

HeLa = assay: MTT cell viability assay, HeLa; format: cell-based, human
Experimental: as §1, §2

[1] = tested on: glioma cells (U87MG, U373MG, LN229, A172 and T98G); assay: MTT assay, panel of glioma cell lines; format: cell-based, human; conditions: Homo sapiens, Glioma cell, range over U87MG, 48 hr, read-out: IC50 values against different glioma cell lines
Experimental: as §1, §2

[2] = In vivo bioavailability after oral feeding; parameters: species or system Balb/c mice; conditions: after oral administration
Experimental: EtOAc extract of Murraya koenigii was orally feeded to normal healthy Balb/c (100 mg/kg body weight) and blood was collected from retro orbital plexus after 30 min interval by glass capillary. Control blood was collected from the mice before the […] of extract. The Institutional Animal Ethical Committee had approved the study. Blood serum was isolated and the serum protein was separated by centrifugation in ice-cold acetone. Supernatant was evaporated to dryness and residual part was dissolved in minimum volume of MeOH and injected into the HPLC column.

Hsp90α = Hsp90α (Homo sapiens, UniProt P07900); assay: γ-ATP sepharose binding assay, Hsp90α; conditions: mahanine at 50 and 100 μM
Experimental: 5 μg of purified Hsp90α and Hsp90β were pre-incubated separately on ice with 200 μL incubation buffer (10 mM Tris-Hcl, 50 mM KCl, 5 mM MgCl2, 2 mM DTT, 20 mM Na2MoO4, 0.01% NP40, pH 7.5) containing mahanine or 17-AAG and incubated for 30 mins on ice. After the incubation, 25 μL pre-equilibrated γ-phosphate ATP sepharose added and again incubated at 37° C. with frequent agitation.
Sepharose subsequently washed and analyzed by SDS-PAGE. Then the blot was probed with anti Hsp90 antibody and developed by ECL.

[3] = tested on: Normal cells [heart, liver, muscle and peripheral blood mononuclear cells (PBMC)]; assay: In vitro testing on normal cells; format: cell-based, rat
Experimental: The cardiomyocytes from 2-day-old neonatal rat were isolated. Briefly, heart was excised and minced in pre warmed (37° C.) Ads buffer (1.2M NaCl, 198 mM HEPES, 54 mM KCl, 8.3 mM MgSO4, 55.4 mM glucose, 95 mM NaH2PO4), digested in typeII Collagenase 0.05% and Pancreatin in 3-successive digestions of 15 minutes each. Supernatant was pooled and cells palleted at 2000 g, 10 minutes. Cells were resuspended and plated in collagen coated T-25 flaks in Medium-199 enriched with 10% Fetal Bovine Serum and 1% antibiotic-antimycotic.
The hepatocytes from 2-day-old neonatal rat were isolated. Briefly, The liver were perfused through the portal vein with a calcium-free solution consisting of 150 mM NaCl, 2.8 mM KCl, 5.5 mM glucose, and 25 mM HEPES (pH 7.6) for 10 min, followed by mincing and digestion in DMEM containing 0.05% collagenase type IV for 30 minutes. The cells were centrifuged (2000 g, 10 minutes) and dispersed in DMEM enriched with 10% fetal Bovine Serum, 1% antibiotic-antimycotic.
The skeletal muscles from 2-day-old neonatal rat were isolated. Briefly, Soleus muscles were dissected minced and digested with 0.2% Type II Collagenase and 0.05% trypsin in Phosphate buffered Saline (PBS) pH 7.4, 0.15 M NaCl. […]
Viability of cancer cell lines after treatment as at the indicated times was determined by MTT assay. […] Absorbance was recorded at 550 nm with 96 well plate readers.

Panc1 = assay: MTT cell viability assay, Panc1; format: cell-based, human; conditions: Homo sapiens, PANC-1; Panc1, 48 hrs
Experimental: as §1, §2

CC(C)=CCCC1(C)C=Cc2c(c(C)cc3c2[nH]c2cc(O)ccc23)O1 (centres unmarked) [Mahanine, mahanine]
apoptosis (7-AAD+ve cells) (SiHa): 97.13% | IC50 (T98G): 16.1 ± 0.9 µM | IC50 (U373MG): 16.8 ± 0.6 µM | IC50 (HeLa; 48 hrs): 13.2 ± 1.1 µM | IC50 (HeLa; Homo sapiens, 48 h): 10.9 µM | IC50 [1]: 12 to 17 µM | secondary metabolites in blood (mass spectroscopy) [2]: no production of secondary metabolites | effect on ATP binding to purified Hsp90 (Hsp90α): could not reduce | inhibition at 50 µM ([3]; PBMC, mahanine at 50 μM, normal rat tissue cells, Vero and WI-38): 15 to 20% | sensitivity of normal cells ([3]; heart, liver, muscle and PBMC, in vitro): less sensitive | IC50 (Panc1): 16.5 ± 0.2 µM
